Measurements reported in US5393788A, “Phenylalkyl oxamides” (SmithKline Beecham Corporation, priority 1993, dated 1995).

Assays:
TNF / endotoxin shock = experiment: Two in vivo models of endotoxin shock (one or both, not specified); set-up: species or system mouse; conditions: for protection from the lethal effects of endotoxin shock: in vivo endotoxin shock models
Excerpt: (§1) Two models of endotoxin shock have been utilized to determine in vivo TNF activity for the compounds of Formula (1). The protocol used in these models is described in Badger et al., EPO published Application 0 411 754 A2, Feb. 6, 1991, and in Hanna, WO 90/15534, Dec. 27, 1990.

[1] = tested on: TNF production / endotoxic shock; experiment: P acnes/LPS treated mice model of endotoxic shock; assay type: in vivo
Excerpt: as §1

serum TNF = experiment: LPS/GAL mouse model of endotoxic shock; assay type: in vivo
Excerpt: as §1

## COc1ccc(CCNC(=O)C(N)=O)cc1OC [Example 8, N-[2-(3,4-Dimethoxyphenyl)ethyl]oxamide]
TNF / endotoxin shock
  protection from the lethal effects of endotoxin shock: protected the animals from endotoxic induced shock
TNF / endotoxin shock; one or both of the in vivo assays
  in vivo TNF levels: inhibited in vivo TNF levels

## COc1ccc(CCNC(=O)C(N)=O)cc1OC1CCCC1 [Example 15, N-[2-(3-Cyclopentyloxy-4-methoxyphenyl)ethyl]oxamide]
TNF / endotoxin shock
  protection from the lethal effects of endotoxin shock: protection from the lethal effects of endotoxin shock
[1]; P acnes/LPS model, control group 100% lethality
  survival rate: 80%
[1]; P acnes/LPS treated mice
  TNF production: inhibition of TNF production
Serum TNF
  serum TNF levels: reduction in serum TNF levels
